Columns and labels:
thoracic aorta of rats = assay: Relaxing effect on thoracic aorta contracted by phenylephrine (organ bath); set-up: species or system rats of SD species; settings: 67 μg/mL, phenylephrine 0.5 μM, mean n = 3; for inhibition at 67 µg/mL: Rattus norvegicus, read-out: Relaxation percentage
Summary of the method: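 Thoracic aortic rings (2 mm) from ether-anesthetized male SD rats (250-300 g) were mounted in Krebs buffer gassed with 95% O2/5% CO2 and equilibrated at 1.0 g basal tension for 90 min. After stable contraction with phenylephrine (0.5 μM), compounds were added and relaxation recorded.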

SH-SY5Y cells [1] = assay: Inhibitory effect on H2O2-mediated cytotoxicity (MTT assay); assay type: cell-based, humans; settings: 200 μM hydrogen peroxide, 24 hours
Procedure: SH-SY5Y cells that are oriented by nerve cell line from humans were cultured with 3×10^4 cell concentration in 96 well plate, and the sample was treated. After 30 minutes, 200 μM hydrogen peroxide was treated to induce toxicity for 24 hours. After the reaction was completed, the survival rate of cells was measured by MTT assay.

[2] = test system: superoxide dismutase (SOD); assay: Increase of superoxide dismutase (SOD) activity in mouse brain cells; assay type: cell-based; settings: 100 μg/ml
Procedure: ROS inhibitory effect of compounds was represented to the dose suppressing 50% of production of reactive oxygen compared to control. […] The activity of superoxide dismutase (SOD) was measured by using a kit acquired in Sigma.

[3] = test system: mixed culture of nerve cells-glial cells; assay: Protecting effect on NMDA-induced nerve cell death (LDH release); assay type: cell-based, ICR mouse; settings: 100 μM NMDA, LDH release after 24 hours
Summary of the method: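 Embryonic day-14 ICR mouse cortical neurons seeded on cortical glia, Ara-C-treated, then exposed at day 12–15 for 20 min to 100 μM NMDA with compound at 1 or 2 μg/mL. LDH released 24 h later measured colorimetrically as a cell-death index.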

[4] = test system: pentylentetrazole (PTZ)-induced convulsion; assay: Anti-convulsant effect, pentylentetrazole (PTZ) test; assay type: in vivo; settings: 10 mg/kg intraperitoneally, PTZ 80 mg/kg subcutaneously; for mortality rate / Induction percentage of convulsion: (animals/total); for mortality rate: negative control 70(17/23); for Induction percentage of convulsion: negative control 100(23/23); for Initiation time of convulsion: negative control 5.0 ± 0.7; for Duration of convulsion: negative control 46.7 ± 3.3
Summary of the method: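 Compound was given intraperitoneally at 10 mg/kg before PTZ challenge. The read-outs were time to convulsion onset, time until convulsions fully disappeared, and mortality.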

SH-SY5Y cells [5] = assay: Inhibitory effect on ZnSO4-mediated cytotoxicity (MTT assay); assay type: cell-based, humans; settings: compound 50 μg/ml; 600 μM zinc sulfate, 24 hours
Procedure: SH-SY5Y cells were cultured with 3×10^4 cell concentration in 96 well plates, and the compound (50 μg/ml) was treated. After 30 minutes, 600 μM of zinc sulfate was treated to induce toxicity for 24 hours and survival rate of cells was measured by MTT assay.

mouse brain cells = assay: Inhibitory effect on ROS production in brain cells (DCF-DA, NMDA-induced); assay type: cell-based; settings: dose suppressing 50% of production of reactive oxygen compared to control; mouse brain cells

What does the source list for `CC(=O)N(CCCCN(CCCn1c(=O)[nH]c2ccccc2c1=O)C(C)=O)CCCn1c(=O)[nH]c2ccccc2c1=O` [Compound 4, N-(4-{acetyl-[3-(2,4-dioxo-1,4-dihydro-2H-quinazolin-3-yl)propyl]amino}butyl)-N-[3-(2,4-dioxo-1,4-dihydro-2H-quinazolin-3-yl)propyl]acetamide]?
inhibition at 67 µg/mL (thoracic aorta of rats): 7.7%; inhibitory percentage, oxidative toxicity induced by hydroperoxide (SH-SY5Y cells [1]; 5 μg/ml): 2.0 ± 0.4%; inhibitory percentage, oxidative toxicity induced by hydroperoxide (SH-SY5Y cells [1]; 50 μg/ml): 18.1 ± 2.1%; Increase of SOD activity, compared to control [2]: 0.6 ± 2.2; Inhibitory effect of cell death by NMDA-induced excitable neurotoxicity ([3]; 1 μg/ml compound): 22.3%; Inhibitory effect of cell death by NMDA-induced excitable neurotoxicity ([3]; 2 μg/ml compound): 7.4%

Which results are given for `CS(=O)(=O)N(CCCCNCCCn1c(=O)[nH]c2ccccc2c1=O)CCCn1c(=O)[nH]c2ccccc2c1=O` [Compound 12, N-[3-(2,4-dioxo-1,4-dihydro-2H-quinazolin-3-yl)propyl]-N-{4-[3-(2,4-dioxo-1,4-dihydro-2H-quinazolin-3-yl)propylamino]butyl}methansulfonamide]?
mortality rate [4]: 67(4/6) %; Induction percentage of convulsion [4]: 100(6/6) %; Initiation time of convulsion [4]: 13.7 ± 6.2 min; Duration of convulsion [4]: 39.3 ± 8.8 min; inhibition at 67 µg/mL (thoracic aorta of rats): 10.9%; Increase of SOD activity, compared to control [2]: 2.8 ± 1.8; inhibitory percentage, zinc-induced toxicity (SH-SY5Y cells [5]): 12.7 ± 4.3%; Inhibitory effect of cell death by NMDA-induced excitable neurotoxicity ([3]; 1 μg/ml compound): 5.7%; Inhibitory effect of cell death by NMDA-induced excitable neurotoxicity ([3]; 2 μg/ml compound): 2.6%

For “[3-(2,4-dioxo-1,4-dihydro-2H-quinazolin-3-yl)propyl]-{4-[3-(2,4-dioxo-1,4-dihydro-2H-quinazolin-3-yl)propylamino]butyl}heptanoic amide [Compound 35]”, which mortality rate [4] is on record?
The mortality rate was 33(2/6) %.

What about the “Induction percentage of convulsion” value [4] of the same molecule?
The value was 100(6/6) %.

And the “Initiation time of convulsion” value [4]?
The value was 5.4 ± 1.6 min.

And the Duration of convulsion [4]?
The Duration of convulsion was 33.3 ± 7.3 min.

What about the Relaxation percentage (thoracic aorta of rats) of the same molecule?
Its Relaxation percentage is 42.6%.

And the “Increase of SOD activity, compared to control” value [2]?
The value was 3.4 ± 7.9.

And the “ROS inhibitory effect ID50” value (mouse brain cells)?
The value was 140.0 ± 18.6 µg/mL.

What about the “inhibitory percentage, zinc-induced toxicity” value (SH-SY5Y cells [5]) of the same molecule?
Its value is 9.1 ± 1.8%.

What about the “Inhibitory effect of cell death by NMDA-induced excitable neurotoxicity” value ([3]; 1 μg/ml compound) of the same molecule?
The value was 32.5%.

And the “Inhibitory effect of cell death by NMDA-induced excitable neurotoxicity” value ([3]; 2 μg/ml compound)?
The value was 35.7%.

Reference: patent publication US8404696B2, “Quinazoline-2,4-dione derivative, and medical compositions for the prophylaxis and treatment of cranial nerve disease containing the same” (Shin Poong Pharmaceutical Co., Ltd., priority 2008, dated 2013)
